Measured values as given in US20200009118A1, “COMPOSITIONS AND METHODS FOR THE TREATMENTOF NEURODEGENERATIVE AND OTHER DISEASES” (Glialogix, Inc., priority 2017, published 2020).

Tests used:
2D2-TCR MOG (2D2) mice = test: 2D2 mouse model of optic neuritis, myelin staining of the optic nerve; format: in vivo; details: for Number of animals, average myelin content score Low / Number of animals, average myelin content score high / Number of animals, average myelin content score moderate: sulfasalazine 200 mg/kg or memantine 5 mg/kg IP BID
Source text: This model serves as an inducible model of optic neuritis with a high rate of penetrance. The development of optic neuritis was monitored by animal observation and histopathology.
Female 2D2 (strain C57BL/6-Tg(Tcra2D2,Tcrb2D2)1Kuch/J) and WT mice (C57BL/6) were purchased from The Jackson Laboratory. Each cohort size was 14 animals. Mice were delivered to Ophthy-DS (Kalamazoo, Mich.) under the supervision of Renovo Neural (Cleveland, Ohio) at 8-12 weeks of age and then acclimated for an additional 4 weeks before beginning the experiment. Animals were housed in pathogen-free, individually-ventilated, enriched cages on a 12 h:12 h light:dark cycle with food and water ad libitum. Mice were monitored daily for welfare and symptoms of optic neuritis.
After 4 weeks of acclimation, animals were randomized by weight into 4 groups of 14 animals each. To induce optic neuritis, 200 ng of Pertussis toxin was injected into the 2D2 animals on days 1 and 3 as described by Guan et al. Dosing of vehicle or treatment compounds began at day 1. The four cohorts are: • (1) WT mice (C57BL/6) treated with vehicle (200 μl saline IP, BID). This cohort serves as a control for the readouts of optic neuritis disease. • (2) 2D2 mice vehicle treated with vehicle (200 μl saline IP, BID). […] The memantine-treated group served as a control for anti-glutamatergic therapy in the 2D2 model of optic neuritis.
On day 30, animals were euthanized and perfused. Optic nerves and retinas were dissected out and embedded in paraffin and sections mounted on slides. 5-7 sections of the optic nerve (from one eye) from ten animals in each cohort were stained by Toluidine Blue. Histopathological analysis of the slides and quantitation of the myelin staining intensity was performed blinded by a board-certified pathologist, Dr. Igor Polyakov (Minneapolis, Minn.). Staining intensity of each slide was graded as either low, moderate or high. Both peripheral and central sections of the optic nerve were graded. The intensity of the myelin staining between the cohorts on a per section and a per animal basis was compared using chi-square and Fishers' exact test with a p<0.05 considered significant.
On a per animal basis, this yielded 20 scores per cohort: average score per section×2 scores per animal (peripheral or central)×10 animals per cohort. On a per section basis, this yielded approximately 110 score per cohort: score per section×5-7 sections per animal×2 scores per section (peripheral or central)×10 animals per cohort.

[1] = 2 g oral dose, people with ABCG2 genotype 421C/C; cited from earlier work
activated astrocytes = test: Astrocyte activation (anti-GFAP area fraction) in spinal cord ventral horn of SOD1 mice; format: in vivo, mouse
Source text: The same test mice, spinal cord preparations and methods of analysis used in the neuroinflammatory study were identical to those used in the xCT quantitation study. Two neuroinflammatory cell populations were quantitated: (1) activated microglial cells using an antibody to the F4/80 antigen, and (2) activated astrocytes, using an antibody to the GFAP antigen. For each objective image, light parameters were optimized and kept consistent across all sections. Images that were captured at 20× were then imported into ImageJ freeware (NIH, Bethesda, Md.). A maximum entropy threshold algorithm was applied to all images in a completely blinded fashion to filter out all pixels that were not stained as DAB positive. 20× images were analyzed in a blinded fashion and mean area fraction occupied by stain was tabulated. Levels of neuroinflammation in the spinal cord were assessed by measuring the area fraction of the area of the ventral horn in the spinal cord occupied by activated astrocytes or microglia. […] The samples were then incubated with the primary antibody (Anti-GFAP) purchased from Abcam (Catalog # Ab10062; Cambridge, Mass.), diluted 1:1000 in PBS overnight at 4° C. Reaction products were developed using the Vector ImmPress system (Vector Labs, Burlingame, Calif.) using an anti-mouse IgG-conjugated horseradish peroxidase.

[2] = Total (central + peripheral, 20 scores), day 30
[3] = per section basis, Central Region, day 30
[4] = per section basis, Peripheral Region, day 30
[5] = per section basis, Total, day 30

O=C(O)c1cc(/N=N/c2ccc(S(=O)(=O)Nc3ccccn3)cc2)ccc1O [Sulfasalazine, 2-hydroxy-5-[(E)-2-{4-[(pyridin-2-yl)sulfamoyl]phenyl}diazen-1-yl]benzoic acid]
Number of animals, average myelin content score Low (2D2-TCR MOG (2D2) mice; Central Region, day 30): 0 | Number of animals, average myelin content score high (2D2-TCR MOG (2D2) mice; Central Region, day 30): 4 | Number of animals, average myelin content score moderate (2D2-TCR MOG (2D2) mice; Central Region, day 30): 6 | Number of animals, average myelin content score Low (2D2-TCR MOG (2D2) mice; Peripheral Region, day 30): 1 | Number of animals, average myelin content score high (2D2-TCR MOG (2D2) mice; Peripheral Region, day 30): 4 | Number of animals, average myelin content score moderate (2D2-TCR MOG (2D2) mice; Peripheral Region, day 30): 5 | Number of animal scores, myelin content High (2D2-TCR MOG (2D2) mice; [2]): 8 | Number of animal scores, myelin content Low (2D2-TCR MOG (2D2) mice; [2]): 1 | Number of animal scores, myelin content Moderate (2D2-TCR MOG (2D2) mice; [2]): 11 | myelin content compared to the vehicle-treated 2D2 animals (2D2-TCR MOG (2D2) mice; optic nerve, day 30): highly significant increase in myelin content | Number of sections, myelin content Low (2D2-TCR MOG (2D2) mice; [3]): 0 | Number of sections, myelin content high (2D2-TCR MOG (2D2) mice; [3]): 19 | Number of sections, myelin content moderate (2D2-TCR MOG (2D2) mice; [3]): 38 | Number of sections, myelin content Low (2D2-TCR MOG (2D2) mice; [4]): 8 | Number of sections, myelin content high (2D2-TCR MOG (2D2) mice; [4]): 21 | Number of sections, myelin content moderate (2D2-TCR MOG (2D2) mice; [4]): 28 | Number of section scores, myelin content High (2D2-TCR MOG (2D2) mice; [5]): 40 | Number of section scores, myelin content Low (2D2-TCR MOG (2D2) mice; [5]): 8 | Number of section scores, myelin content Moderate (2D2-TCR MOG (2D2) mice; [5]): 66 | Percent scores, Myelin content-Total High (2D2-TCR MOG (2D2) mice; per-animal basis): 40% | Percent scores, Myelin content-Total Low (2D2-TCR MOG (2D2) mice; per-animal basis): 5% | Percent scores, Myelin content-Total Moderate (2D2-TCR MOG (2D2) mice; per-animal basis): 55% | Percent scores, Myelin content-Total High (2D2-TCR MOG (2D2) mice; per-section basis): 35% | Percent scores, Myelin content-Total Low (2D2-TCR MOG (2D2) mice; per-section basis): 7% | Percent scores, Myelin content-Total Moderate (2D2-TCR MOG (2D2) mice; per-section basis): 58% | time plasma levels above 10 μg/ml were maintained [1]: approximately 7 hours | Decreased activation vs. vehicle treated SOD1 mice (activated astrocytes; Cervical, day 85): No decrease | Decreased activation vs. vehicle treated SOD1 mice (activated astrocytes; Cervical, day 100, listed as Sulfasalazine formulation): significantly lowered astrocyte activation | Decreased activation vs. vehicle treated SOD1 mice (activated astrocytes; Cervical, day 100, listed as sulfasalazine formulation): Strong decrease (p < 0.01) | Decreased activation vs. vehicle treated SOD1 mice (activated astrocytes; Combined, day 85): Decrease (p < 0.05) | Decreased activation vs. vehicle treated SOD1 mice (activated astrocytes; Combined, day 100): Trend | Decreased activation vs. vehicle treated SOD1 mice (activated astrocytes; Lumbar, day 85, listed as Sulfasalazine formulation): significantly lowered astrocyte activation | Decreased activation vs. vehicle treated SOD1 mice (activated astrocytes; Lumbar, day 85, listed as sulfasalazine formulation): Decrease (p < 0.05) | Decreased activation vs. vehicle treated SOD1 mice (activated astrocytes; Lumbar, day 100, listed as Sulfasalazine formulation): did not affect astrocyte activation | Decreased activation vs. vehicle treated SOD1 mice (activated astrocytes; Lumbar, day 100, listed as sulfasalazine formulation): No decrease | Decreased activation vs. vehicle treated SOD1 mice (activated astrocytes; Thoracic, day 85): Trend | Decreased activation vs. vehicle treated SOD1 mice (activated astrocytes; Thoracic, day 100): No decrease
